# From publication PMC9481151, “Discovery of new symmetrical and asymmetrical nitrile-containing 1,4-dihydropyridine derivatives as dual kinases and P-glycoprotein inhibitors: synthesis, in vitro assays, and in silico studies” (Journal of Enzyme Inhibition and Medicinal Chemistry, 2022)
# Assays:
# [1] = molecular target: BTK (Homo sapiens, UniProt Q06187); test: BTK inhibitory activity; format: biochemical; details: (IC50 lapatinib/IC50 Compound)*100
# [2] = molecular target: HER-2 (Homo sapiens, UniProt P04626); test: HER-2 kinase inhibitory activity; format: biochemical; details: (IC50 lapatinib/IC50 Compound)*100
# HER-2, sequence (P04626 23-1255): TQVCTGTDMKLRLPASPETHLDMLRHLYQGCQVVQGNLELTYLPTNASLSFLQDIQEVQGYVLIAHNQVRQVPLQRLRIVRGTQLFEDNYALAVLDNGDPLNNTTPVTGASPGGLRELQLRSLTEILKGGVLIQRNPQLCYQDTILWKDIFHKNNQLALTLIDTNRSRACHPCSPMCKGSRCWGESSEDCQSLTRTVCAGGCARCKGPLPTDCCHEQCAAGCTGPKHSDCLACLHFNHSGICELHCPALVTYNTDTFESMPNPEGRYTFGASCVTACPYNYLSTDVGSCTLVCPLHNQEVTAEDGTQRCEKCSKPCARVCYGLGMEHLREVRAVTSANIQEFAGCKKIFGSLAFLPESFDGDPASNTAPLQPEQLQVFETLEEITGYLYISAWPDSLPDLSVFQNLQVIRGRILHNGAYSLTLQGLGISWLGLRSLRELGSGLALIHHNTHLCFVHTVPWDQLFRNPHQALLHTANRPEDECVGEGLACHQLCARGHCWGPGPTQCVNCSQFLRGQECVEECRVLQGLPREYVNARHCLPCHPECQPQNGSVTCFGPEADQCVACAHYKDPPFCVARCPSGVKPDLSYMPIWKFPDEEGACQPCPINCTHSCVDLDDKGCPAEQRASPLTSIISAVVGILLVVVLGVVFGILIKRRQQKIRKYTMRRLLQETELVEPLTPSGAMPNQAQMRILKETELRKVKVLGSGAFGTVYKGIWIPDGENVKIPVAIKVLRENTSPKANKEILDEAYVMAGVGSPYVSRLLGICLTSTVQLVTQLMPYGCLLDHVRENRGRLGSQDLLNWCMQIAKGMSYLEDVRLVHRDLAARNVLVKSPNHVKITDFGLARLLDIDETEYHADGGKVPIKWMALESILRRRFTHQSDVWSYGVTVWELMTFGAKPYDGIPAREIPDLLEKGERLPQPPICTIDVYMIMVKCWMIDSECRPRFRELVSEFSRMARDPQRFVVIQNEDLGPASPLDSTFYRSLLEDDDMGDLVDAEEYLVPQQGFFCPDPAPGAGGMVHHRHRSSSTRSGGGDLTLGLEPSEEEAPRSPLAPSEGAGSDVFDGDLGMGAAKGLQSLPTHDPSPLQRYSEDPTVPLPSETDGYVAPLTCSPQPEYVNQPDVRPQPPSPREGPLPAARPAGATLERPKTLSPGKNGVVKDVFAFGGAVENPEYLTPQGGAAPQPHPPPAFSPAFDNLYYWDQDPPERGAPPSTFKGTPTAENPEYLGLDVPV
# [3] = test system: HCT-116 cells; test: In vitro cytotoxicity; details: Homo sapiens, HCT-116, read-out: Cytotoxicity IC50, HCT-116
# [4] = test system: drug-resistant HCT-116/ADR cells; test: Potentiation of DOX cytotoxicity (reversal DOX effect, P-gp modulation); format: cell-based, human; details: IC50 (DOX) without modulator / IC50 (DOX) with modulator
# [5] = test system: HCT-116/ADR cells; test: cells; details: Homo sapiens, HCT-116, read-out: Cytotoxicity IC50, HCT-116/ADR
# BTK, sequence (Q06187 whole entry): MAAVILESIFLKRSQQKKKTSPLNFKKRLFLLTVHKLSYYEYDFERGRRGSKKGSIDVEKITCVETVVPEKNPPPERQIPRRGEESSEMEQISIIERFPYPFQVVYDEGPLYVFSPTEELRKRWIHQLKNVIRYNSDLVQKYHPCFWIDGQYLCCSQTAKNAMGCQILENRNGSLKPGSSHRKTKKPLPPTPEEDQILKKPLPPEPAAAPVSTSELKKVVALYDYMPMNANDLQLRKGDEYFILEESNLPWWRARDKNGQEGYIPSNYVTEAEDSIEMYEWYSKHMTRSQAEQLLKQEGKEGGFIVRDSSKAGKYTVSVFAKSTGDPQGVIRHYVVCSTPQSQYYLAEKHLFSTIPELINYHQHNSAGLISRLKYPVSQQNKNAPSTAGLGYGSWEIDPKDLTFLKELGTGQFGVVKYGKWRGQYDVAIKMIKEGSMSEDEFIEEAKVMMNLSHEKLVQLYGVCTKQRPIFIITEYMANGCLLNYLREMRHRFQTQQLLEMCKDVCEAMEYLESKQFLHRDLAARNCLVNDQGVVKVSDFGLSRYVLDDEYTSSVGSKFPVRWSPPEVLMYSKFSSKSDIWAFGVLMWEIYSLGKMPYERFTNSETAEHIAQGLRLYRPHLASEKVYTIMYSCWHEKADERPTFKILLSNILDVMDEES
SMILES,BTK Potency [1],HER-2 Potency [2],IC50 [3],RF (reversal fold activity) [4],IC50 [5]
"CS(=O)(=O)CCNCc1ccc(-c2ccc3ncnc(Nc4ccc(OCc5cccc(F)c5)c(Cl)c4)c3c2)o1 [Lapatinib, reference compound]",100.0%,100.0%,,,
"COc1cccc2c1C(=O)c1c(O)c3c(c(O)c1C2=O)C[C@@](O)(C(=O)CO)C[C@@H]3O[C@H]1C[C@H](N)[C@H](O)[C@H](C)O1 [DOX, Doxorubicin, reference compound]",,,1.15 ± 0.43 µM,1,16.91 ± 0.14 µM
